Assay results taken from US20220213047A1, “CARBONIC ANHYDRASE INHIBITORS FOR TREATMENT OF NEISSERIA GONORRHOEAE INFECTION” (Purdue Research Foundation, priority 2021, published 2022).
In brackets after ≈: the same amount, converted by molar mass.

Columns and labels:
N. gonorrhoeae = test: MIC against N. gonorrhoeae clinical isolates, normal and CO2 conditions; assay type: cell-based; conditions: Neisseria gonorrhoeae
Description: (§1) These tests were performed in normal culture conditions with standard CO2 levels and in CO2 (5% in incubator) conditions.

ATCC strain 700825 = test: MICs against ATCC strain 700825; assay type: cell-based, N. gonorrhoeae; conditions: Neisseria gonorrhoeae
Description: as §1

[1] = system: intracellular N. gonorrhoeae; test: Intracellular clearance of N. gonorrhoeae in infected endocervical cells (End1/E6E7); assay type: cell-based; conditions: 5×MIC, 24 hours
Text: Intracellular clearance of N. gonorrhoeae—N. gonorrhoeae is known to invade epithelial cells of the genital tract and cross the epithelial barrier into the subepithelial space^59. Previous studies have shown that N. gonorrhoeae can survive inside host cells and pass epithelial cell layers (a key step in causing disseminated infections)^60,61. Therefore, a drug candidate must also be able to kill intracellular N. gonorrhoeae in order to be an effective therapeutic. Also, we were concerned that CAIs have reduced activity in high-CO2 conditions and may not be suitable to treat intracellular infection. Thus, we examined CAIs ability to reduce the burden of intracellular N. gonorrhoeae present in infected endocervical cells^56.

[2] = N. gonorrhoeae 178, Non CO2 environment
[3] = N. gonorrhoeae 178, normal growth environment (with CO2)
[4] = N. gonorrhoeae 181, Non CO2 environment
[5] = N. gonorrhoeae 181, normal growth environment (with CO2)
[6] = N. gonorrhoeae 194, Non CO2 environment
[7] = N. gonorrhoeae 194, normal growth environment (with CO2)

Row | MIC (ATCC strain 700825; ATCC700825, In CO2) | MIC (ATCC strain 700825; ATCC700825, In air) | SMILES | MIC (N. gonorrhoeae; [2]) | MIC (N. gonorrhoeae; [3]) | MIC (N. gonorrhoeae; [4]) | MIC (N. gonorrhoeae; [5]) | MIC (N. gonorrhoeae; [6]) | MIC (N. gonorrhoeae; [7]) | reduction in N. gonorrhoeae inside infected endocervical cells [1]
1 | – | – | CC(C)(C)C(=O)Nc1nnc(S(N)(=O)=O)s1 [CAI 0010] | 32 µg/mL (≈ 121 µM) | 32 µg/mL (≈ 121 µM) | 32 µg/mL (≈ 121 µM) | > 64 µg/mL | 32 µg/mL (≈ 121 µM) | 64 µg/mL (≈ 242 µM) | –
2 | 32 µg/mL (≈ 122 µM) | 16 µg/mL (≈ 61 µM) | NS(=O)(=O)c1nnc(NC(=O)CC2CC2)s1 [CAI 0040] | – | – | – | – | – | – | –
3 | 128 µg/mL (≈ 416 µM) | 32 µg/mL (≈ 104 µM) | NS(=O)(=O)c1nnc(NC(=O)CN2CCOCC2)s1 [CAI 0031] | 32 µg/mL (≈ 104 µM) | 64 µg/mL (≈ 208 µM) | > 64 µg/mL | > 64 µg/mL | 64 µg/mL (≈ 208 µM) | > 64 µg/mL | –
4 | – | – | NS(=O)(=O)c1nnc(NC(=O)c2ccccc2)s1 [CAI 0012] | 2 µg/mL (≈ 7.03 µM) | 16 µg/mL (≈ 56.3 µM) | 4 µg/mL (≈ 14.1 µM) | > 64 µg/mL | 2 µg/mL (≈ 7.03 µM) | 64 µg/mL (≈ 225 µM) | –
5 | – | – | CC(C)=CC(=O)Nc1nnc(S(N)(=O)=O)s1 [CAI 0016] | 16 µg/mL (≈ 61 µM) | 64 µg/mL (≈ 244 µM) | 16 µg/mL (≈ 61 µM) | 32 µg/mL (≈ 122 µM) | 32 µg/mL (≈ 122 µM) | 64 µg/mL (≈ 244 µM) | –
6 | – | – | NS(=O)(=O)c1nnc(NC(=O)C2CC2)s1 [CAI 0020] | 2 µg/mL (≈ 8.06 µM) | 64 µg/mL (≈ 258 µM) | 2 µg/mL (≈ 8.06 µM) | 64 µg/mL (≈ 258 µM) | 4 µg/mL (≈ 16.1 µM) | > 64 µg/mL | –
7 | – | – | NS(=O)(=O)c1nnc(NC(=O)CN2CCCCC2)s1 [CAI 0035] | 64 µg/mL (≈ 210 µM) | > 64 µg/mL | > 64 µg/mL | > 64 µg/mL | 64 µg/mL (≈ 210 µM) | > 64 µg/mL | –
8 | – | – | CO/N=C(\C(=O)N[C@@H]1C(=O)N2C(C(=O)O)=C(CSc3nc(=O)c(=O)[nH]n3C)CS[C@H]12)c1csc(N)n1 [ceftriaxone] | – | – | – | – | – | – | 0.32 log10
9 | – | – | CC(C)CC(=O)Nc1nnc(S(N)(=O)=O)s1 [CAI 0026] | 8 µg/mL (≈ 30.3 µM) | 32 µg/mL (≈ 121 µM) | 8 µg/mL (≈ 30.3 µM) | > 64 µg/mL | 4 µg/mL (≈ 15.1 µM) | > 64 µg/mL | –
10 | – | – | NS(=O)(=O)c1nnc(NC(=O)C2CCCC2)s1 [CAI 0023] | 8 µg/mL (≈ 28.9 µM) | 32 µg/mL (≈ 116 µM) | 8 µg/mL (≈ 28.9 µM) | 64 µg/mL (≈ 232 µM) | 8 µg/mL (≈ 28.9 µM) | 64 µg/mL (≈ 232 µM) | –
11 | – | – | CCNc1nnc(S(N)(=O)=O)s1 [CAI 0032] | 64 µg/mL (≈ 307 µM) | > 64 µg/mL | > 64 µg/mL | > 64 µg/mL | > 64 µg/mL | > 64 µg/mL | –
12 | – | – | CCN[C@H]1CN(CCCOC)S(=O)(=O)c2sc(S(N)(=O)=O)cc21 [Brinzolamide] | > 64 µg/mL | > 64 µg/mL | > 64 µg/mL | > 64 µg/mL | > 64 µg/mL | > 64 µg/mL | –
13 | – | – | CCCCCCC(=O)Nc1nnc(S(N)(=O)=O)s1 [CAI 0027] | 2 µg/mL (≈ 6.84 µM) | 32 µg/mL (≈ 109 µM) | 2 µg/mL (≈ 6.84 µM) | 64 µg/mL (≈ 219 µM) | 1 µg/mL (≈ 3.42 µM) | 64 µg/mL (≈ 219 µM) | –
14 | – | – | NS(=O)(=O)c1nnc(NC(=O)CC2CCCCC2)s1 [CAI 0029] | 1 µg/mL (≈ 3.29 µM) | 32 µg/mL (≈ 105 µM) | 0.5 µg/mL (≈ 1.64 µM) | > 64 µg/mL | 2 µg/mL (≈ 6.57 µM) | > 64 µg/mL | –
15 | 4 µg/mL (≈ 12.8 µM) | 0.5 µg/mL (≈ 1.6 µM) | NS(=O)(=O)c1nnc(NC(=O)CCc2ccccc2)s1 [CAI 0041] | – | – | – | – | – | – | –
16 | – | – | NS(=O)(=O)c1nnc(NC(=O)CC2CCCC2)s1 [CAI 0021] | 2 µg/mL (≈ 6.89 µM) | 64 µg/mL (≈ 220 µM) | 1 µg/mL (≈ 3.44 µM) | > 64 µg/mL | 4 µg/mL (≈ 13.8 µM) | > 64 µg/mL | –
